Laboratory results from patent US20260130933A1, “PHARMACEUTICAL COMPOSITION FOR PREVENTION OR TREATMENT OF NEPHROPATHY AND/OR DIABETES MELLITUS, COMPRISING ENAVOGLIFLOZIN” (DAEWOONG PHARMACEUTICAL CO., LTD., priority 2022, published 2026).

Assay: Example 2: phase 3 trial, enavogliflozin 0.3 mg vs dapagliflozin 10 mg once a day for 24 weeks added to metformin in patients with type 2 diabetes (same efficacy, exploratory and safety endpoints)
Assay type: in vivo, human
Procedure: Subjects who met the inclusion/exclusion criteria were administered a placebo of the clinical trial drug under single-blind (subject blinding) conditions during a 2-week run-in period while continuing to receive metformin. […] The randomized subjects were administered two tablets of the clinical trial drug for each administration group once a day, and then visited the institution at weeks 6, 12, 18, and 24 during the 24-week administration period to conduct efficacy and safety evaluations.
• 1. Change in HbA1c at week 24 after administration of clinical trial drug compared to Visit 2 (randomization)
• 1. Change in HbA1c at each time point of weeks 6, 12, and 18 after administration of clinical trial drug compared to Visit 2 (randomization) • 2. Change in FPG at each time point of weeks 6, 12, 18, and 24 after administration of clinical trial drug compared to Visit 2 (randomization) • 3. Proportion of subjects achieving HbA1c<7% at each time point of weeks 6, 12, 18, and 24 after administration of clinical trial drug • 4. Proportion of subjects achieving HbA1c<6.5% at each time point of weeks 6, 12, 18, and 24 after administration of clinical trial drug • 5. Proportion of subjects achieving therapeutic response (HbA1c change (HbA1c at Visit 2-HbA1c at each evaluation time point)>0.5% or HbA1c<7% at each evaluation time point compared to Visit 2 (randomization)) at each time point of weeks 6, 12, 18 and 24 after administration of clinical trial drug
• 1. Change in fasting c-peptide at each time point of weeks 6, 12, 18, and 24 after administration of clinical trial drug compared to Visit 2 (randomization) • 2. Change in body weight at each time point of weeks 6, 12, 18, and 24 after administration of clinical trial drug compared to Visit 2 (randomization) • 3. Change in fasting lipid concentration (total cholesterol, LDL-C, HDL-C, and triglycerides) at each time point of weeks 6, 12, 18, and 24 after administration of clinical trial drug compared to Visit 2 (randomization) • 4. Changes in systolic or diastolic blood pressure at each time point of weeks 6, 12, 18, and 24 after administration of clinical trial drug compared to Visit 2 (randomization) • 5. Changes in β-cell function and insulin resistance measured by HOMA-β and HOMA-IR at each time point of weeks 6, 12, 18, and 24 after administration of clinical trial drug compared to Visit 2 (randomization) • 6. Changes in renal function-related indicators (UACR, UGCR) measured by UACR at each time point of weeks 6, 12, 18, and 24 after administration of clinical trial drug compared to Visit 2 (randomization) • 7. Changes in obesity-related indicators (adiponectin, leptin) at each time point of weeks 6, 12, 18, and 24 after administration of clinical trial drug compared to Visit 2 (randomization)

[1] = Week 24, mPPS1, enavogliflozin minus dapagliflozin
[2] = Week 24, mPPS2, enavogliflozin minus dapagliflozin
[3] = week 6, modified per-protocol set 1, enavogliflozin 0.3 mg, dapagliflozin 10 mg
[4] = week 6, per-protocol set, enavogliflozin 0.3 mg vs dapagliflozin 10 mg
[5] = week 6, per-protocol set, enavogliflozin 0.3 mg, dapagliflozin 10 mg

## OC[C@H]1O[C@@H](c2cc(Cc3ccc(C4CC4)cc3)c(Cl)c3c2CCO3)[C@H](O)[C@@H](O)[C@@H]1O [Enavogliflozin, (2S,3R,4R,5S,6R)-2-(7-chloro-6 (4-cyclopropylbenzyl)-2,3-dihydrobenzofuran-4-yl)-6-(hydroxymethyl)tetrahydro-2H-pyran-3,4,5-triol]
Week 24, mPPS1
  Triglycerides, Mean (SD): 119.62(58.93) mg/dL
  Triglycerides, Median: 104.00 mg/dL
[1]
  HDL-C change from baseline, LS mean difference: -0.14 mg/dL
  LDL-C change from baseline, LS mean difference: 0.71 mg/dL
  triglycerides change from baseline, LS mean difference: 1.63 mg/dL
Week 24, mPPS2
  Diastolic blood pressure change from baseline, ANCOVA LS mean (SE): −5.41 mmHg
  Diastolic blood pressure change from baseline, Mean (SD): −5.40 mmHg
  Diastolic blood pressure change from baseline, Median: −6.00 mmHg
  Diastolic blood pressure, Mean (SD): 71.65 mmHg
  Diastolic blood pressure, Median: 71.00 mmHg
  Systolic blood pressure change from baseline, ANCOVA LS mean (SE): −5.93(1.01) mmHg
  Systolic blood pressure change from baseline, Mean (SD): −6.34(9.75) mmHg
  Systolic blood pressure change from baseline, Median: −5.00 mmHg
  Systolic blood pressure, Mean (SD): 123.38(12.55) mmHg
  Systolic blood pressure, Median: 122.00 mmHg
[2]
  diastolic blood pressure change from baseline, LS mean difference: −1.15 mmHg
  systolic blood pressure change from baseline, LS mean difference: 0.63 mmHg
Week 6
  FPG change from baseline, LS mean (SE): −28.07(2.14) mg/dL
  HOMA-IR change from baseline, LS mean (SE): −1.47(0.14)
  HOMA-β change from baseline, LS mean (SE): 7.22(5.44)
  HbA1c change from baseline, LS mean (SE): −0.68(0.04) % p
  LDL-C change from baseline, LS mean (SE): −0.09(1.89) mg/dL
  Subjects achieving HbA1c target of <7%: (53.68) %
  Subjects achieving HbA1c<6.5%: 12.63%
  Subjects achieving therapeutic response (HbA1c change >0.5% or HbA1c<7%): 78.95%
  UACR change from baseline, LS mean (SE): −12.75(10.48) g/kg
  UGCR change from baseline, LS mean (SE): 65.72(2.70) mg/mg
  diastolic blood pressure change from baseline, LS mean (SE): −2.75(0.69) mmHg
  fasting c-peptide change from baseline, LS mean (SE): −0.07(0.02) ng/ml
  leptin change from baseline, LS mean (SE): −2.43(0.46) ng/mL
Week 6, vs dapagliflozin
  FPG change from baseline, LS mean difference: -4.27 mg/dL
  HDL-C change from baseline, LS mean difference: -0.49 mg/dL
  HOMA-IR change from baseline, LS mean difference: −0.16
  HOMA-β change from baseline, LS mean difference: 9.01
  HbA1c change from baseline, LS mean difference: −0.05 % p
  LDL-C change from baseline, LS mean difference: -4.29 mg/dL
  Odds ratio for achieving HbA1c<6.5%: 0.83
  Odds ratio for achieving HbA1c<7%: 1.06
  Odds ratio for achieving therapeutic response: 0.98
  UACR change from baseline, LS mean difference: −20.88
  UGCR change from baseline, LS mean difference: 15.62 mg/mg
  body weight change from baseline, LS mean difference: 0.04 kg
  diastolic blood pressure change from baseline, LS mean difference: −1.28 mmHg
  fasting c-peptide change from baseline, LS mean difference: 0.00 ng/mL
  leptin change from baseline, LS mean difference: -0.81 ng/mL
  systolic blood pressure change from baseline, LS mean difference: −0.58 mmHg
  total cholesterol change from baseline, LS mean difference: -2.10 mg/dL
  triglyceride change from baseline, LS mean difference: 18.76 mg/dL
Week 6, listed as enavogliflozin
  Subjects achieving HbA1c target of <7%: 53.68%
Week 6, modified per-protocol set 1, enavogliflozin 0.3 mg vs dapagliflozin 10 mg
  Change from baseline in total cholesterol, ANCOVA LS mean difference: -2.10 mg/dL
[3]
  Change from baseline in Total cholesterol, ANCOVA LS mean (SE): 4.77(2.19) mg/dL
  Change from baseline in Total cholesterol, Mean (SD): 4.34(17.75) mg/dL
  Change from baseline in total cholesterol, Median: 3.00 mg/dL
  fasting Total cholesterol, Mean (SD): 155.77(35.37) mg/dL
  fasting Total cholesterol, Median: 147.00 mg/dL
[4]
  Change from baseline in FPG, ANCOVA LS mean difference: -4.27 mg/dL
  Change from baseline in HbA1c, ANCOVA LS mean difference: −0.05 % p
  Change from baseline in body weight, ANCOVA LS mean difference: 0.04 kg
  Change from baseline in fasting c-peptide, ANCOVA LS mean difference: 0.00 ng/mL
  Odds ratio for achieving HbA1c target of <6.5%, logistic regression model: 0.83
  Odds ratio for achieving therapeutic glycemic response, logistic regression model: 0.98
[5]
  Change from baseline in FPG, ANCOVA LS mean (SE): -28.07 mg/dL
  Change from baseline in FPG, Mean (SD): -26.91 mg/dL
  Change from baseline in FPG, Median: -27.00 mg/dL
  Change from baseline in HbA1c, ANCOVA LS mean (SE): −0.68 % p
  Change from baseline in HbA1c, Mean (SD): −0.62 % p
  Change from baseline in HbA1c, Median: −0.57 % p
  Change from baseline in body weight, ANCOVA LS mean (SE): −1.56(0.20) kg
  Change from baseline in body weight, Mean (SD): −1.56(2.30) kg
  Change from baseline in body weight, Median: -1.70 kg
